Experiments:
[1] = Rat PK study of the compound of Example 1; assay type: in vivo
Protocol: (§1) Surgically modified rats are housed one per cage, and supplied with water and a commercial rodent diet ad libitum prior to study initiation. Food is withheld from the animals for a minimum of twelve hours before and during the study, until four hours post-dose, at which time food is returned. Animals are dosed IV, SC and PO, and blood samples are collected following the study design in the following table. Blood samples (˜0.25 mL) are collected via JVC or tail vein, placed into chilled blood collection tubes containing sodium heparin as the anticoagulant, and kept on ice until centrifugation. Blood samples are then centrifuged at a temperature of 2 to 8° C., at 3,000 g, for 5 minutes. Drug levels in the plasma samples are quantified via HPLC with MS/MS detection. Pharmacokinetic parameters based on the group geomean concentration versus time data, are calculated using a noncompartmental pharmaceutical data analysis software PK Solutions 2.0 (Summit Research Services, Montrose, Colo.).

[2] = target: T1, human D2S receptor (Homo sapiens (Human), UniProt P14416); assay: Cell-based functional cAMP assay, agonist signaling (inhibition of forskolin-stimulated cAMP)
T1 sequence (P14416 other isoform, or with tags, fused parts or gaps): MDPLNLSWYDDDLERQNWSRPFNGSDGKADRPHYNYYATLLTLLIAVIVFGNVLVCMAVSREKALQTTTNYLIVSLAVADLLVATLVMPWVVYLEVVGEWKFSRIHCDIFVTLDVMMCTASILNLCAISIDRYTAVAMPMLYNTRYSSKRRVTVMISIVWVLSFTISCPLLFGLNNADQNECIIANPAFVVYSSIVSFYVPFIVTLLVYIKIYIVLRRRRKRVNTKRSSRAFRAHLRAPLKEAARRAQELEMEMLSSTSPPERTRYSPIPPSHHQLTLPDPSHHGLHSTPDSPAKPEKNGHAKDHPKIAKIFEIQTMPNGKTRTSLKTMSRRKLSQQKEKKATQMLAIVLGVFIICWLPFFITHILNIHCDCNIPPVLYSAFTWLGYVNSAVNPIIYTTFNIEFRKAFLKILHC

[3] = target: T1, human D2S receptor; assay: Cell-based functional cAMP assay, antagonist signaling (reversal of quinpirole inhibition)
[4] = target: SERT (Homo sapiens (Human), UniProt P31645); assay: Binding, SERT
SERT, sequence (P31645 whole entry): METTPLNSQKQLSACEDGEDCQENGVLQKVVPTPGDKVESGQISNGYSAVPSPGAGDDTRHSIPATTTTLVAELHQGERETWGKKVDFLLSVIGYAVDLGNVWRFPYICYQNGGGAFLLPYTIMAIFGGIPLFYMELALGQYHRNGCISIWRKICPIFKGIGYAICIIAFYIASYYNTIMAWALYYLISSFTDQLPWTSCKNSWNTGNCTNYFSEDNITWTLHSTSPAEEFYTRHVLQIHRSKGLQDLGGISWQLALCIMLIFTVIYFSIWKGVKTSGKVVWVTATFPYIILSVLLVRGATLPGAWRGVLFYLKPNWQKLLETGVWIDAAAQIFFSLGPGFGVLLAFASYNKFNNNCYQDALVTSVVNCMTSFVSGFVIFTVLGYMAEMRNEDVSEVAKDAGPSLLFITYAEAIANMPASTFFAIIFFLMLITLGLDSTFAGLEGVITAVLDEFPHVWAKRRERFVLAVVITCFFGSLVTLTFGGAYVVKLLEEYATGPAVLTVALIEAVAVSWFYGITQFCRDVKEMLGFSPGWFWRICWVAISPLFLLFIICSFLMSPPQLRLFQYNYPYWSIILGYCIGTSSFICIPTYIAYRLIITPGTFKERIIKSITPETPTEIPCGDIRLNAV

[5] = Rat PK studies of the compound of Example 3; settings: Study One, IV 1 mg/kg
[6] = target: Mu opiate receptor (Homo sapiens (Human), UniProt P35372); assay: Receptor binding, Mu opiate receptor
Mu opiate receptor, sequence (P35372 whole entry): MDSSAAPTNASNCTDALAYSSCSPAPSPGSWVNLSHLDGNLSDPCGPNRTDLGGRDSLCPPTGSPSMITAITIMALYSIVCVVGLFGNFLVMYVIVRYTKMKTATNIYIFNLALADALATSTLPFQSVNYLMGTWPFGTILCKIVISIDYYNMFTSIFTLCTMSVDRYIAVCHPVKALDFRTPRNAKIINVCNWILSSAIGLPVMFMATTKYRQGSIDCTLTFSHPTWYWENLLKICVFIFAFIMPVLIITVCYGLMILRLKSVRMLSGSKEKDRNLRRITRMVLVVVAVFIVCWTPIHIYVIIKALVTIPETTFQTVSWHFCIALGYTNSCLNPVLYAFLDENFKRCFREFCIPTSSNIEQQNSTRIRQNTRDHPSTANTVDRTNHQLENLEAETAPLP

[7] = Rat PK study of the compound of Example 2; assay type: in vivo
Protocol: as §1
This study is performed according to the same procedure as outlined in Example 5a, with the blood samples collected as shown in the table below.

[8] = test system: patients with acute exacerbated schizophrenia; assay: Clinical studies of patients with acute exacerbated schizophrenia; assay type: in vivo; settings: once daily 60 mg P.O., up to 28 days
Excerpt: Social avoidance can be a critical and debilitating symptom in patients suffering from anxiety disorders, especially social anxiety disorder, as well as in patients suffering from traumatic anxiety disorders. Social avoidance is often one of the key determinants of whether a person with a severe anxiety disorder is capable of maintaining familial relationships or employment relationships. […] Negative symptoms of schizophrenia can be divided into two categories: emotional experience (e.g., emotional withdrawal, passive social withdrawal, active social avoidance) and emotional expression (e.g., blunted effect, poor rapport, lack of spontaneity, and motor retardation). […] These are the symptoms that are most highly correlated with interpersonal functioning.

[9] = test system: rat mPFC slices
[10] = test system: patients with major depressive episodes; settings: 40-minute infusion, total dose 0.5 mg/kg, after 24 hours; cited from earlier work

CN1C(=O)CN2c3c(cccc31)[C@@H]1CN(CCCOc3ccc(F)cc3)CC[C@@H]12 [Compound 1, (6bR,10aS)-8-(3-(4-fluorophenoxy)propyl)-3-methyl-6b,7,8,9,10,10a-hexahydro-1H-pyrido[3′,4′:4,5]pyrrolo[1,2,3-de]quinoxalin-2(3H)-one]
t-1/2 ([1]; IV 1 mg/kg): 1.0 h
AUC ([1]; plasma, IV 1 mg/kg): 0.27 µg·h/mL
Cmax ([1]; plasma, IV 1 mg/kg): 0.505 µg/mL
bioavailability ([1]; plasma, IV 1 mg/kg): 100%
concentration at 30 min ([1]; plasma, IV 1 mg/kg): 0.116 µg/mL
concentration at 1 h ([1]; plasma, IV 1 mg/kg): 0.07 µg/mL
concentration at 6 h ([1]; plasma, IV 1 mg/kg): 0.0016 µg/mL
AUC ([1]; plasma, PO 1 mg/kg): 0.0226 µg·h/mL
Cmax ([1]; plasma, PO 1 mg/kg): 0.005 µg/mL
bioavailability ([1]; plasma, PO 1 mg/kg): 10%
concentration at 30 min ([1]; plasma, PO 1 mg/kg): 0.0042 µg/mL
concentration at 1 h ([1]; plasma, PO 1 mg/kg): 0.0029 µg/mL
concentration at 6 h ([1]; plasma, PO 1 mg/kg): 0.0014 µg/mL
AUC ([1]; plasma, SC 1 mg/kg): 0.247 µg·h/mL
Cmax ([1]; plasma, SC 1 mg/kg): 0.034 µg/mL
bioavailability ([1]; plasma, SC 1 mg/kg): 90%
concentration at 30 min ([1]; plasma, SC 1 mg/kg): 0.0236 µg/mL
concentration at 1 h ([1]; plasma, SC 1 mg/kg): 0.0281 µg/mL
concentration at 6 h ([1]; plasma, SC 1 mg/kg): 0.0128 µg/mL
concentration at 24 h ([1]; plasma, SC 1 mg/kg): 0.0013 µg/mL
agonist activity at the D2S receptor (in words) [2]: no detectable agonist activity
Agonist EC50 ([2]; CHO-K1 hD2S, 10 μM forskolin): no activity
antagonist activity at the D2S receptor (in words) [3]: antagonist activity

O=C1CN2c3c(cccc3[C@@H]3CN(CCCOc4ccc(F)cc4)CC[C@@H]32)N1 [Formula A, (6bR,10aS)-8-(3-(4-fluorophenoxy)propyl)-6b,7,8,9,10,10a-hexahydro-1H-pyrido[3′,4′:4,5]pyrrolo[1,2,3-de]quinoxalin-2(3H)-one]
SERT activity (in words) [4]: relatively weak SERT antagonist
t-1/2 [5]: 1.1 h
mu-opiate activity (in words) [6]: very strong mu-opiate antagonist

CN1CCN2c3c(cccc31)[C@@H]1CN(CCCC(=O)c3ccc(F)cc3)CC[C@@H]12 [Formula B, 4-((6bR,10aS)-3-methyl-2,3,6b,9,10,10a-hexahydro-1H-pyrido-[3′,4′:4,5]-pyrrolo[1,2,3-de]quinoxalin-8-(7H)-yl)-1-(4-fluorophenyl)-1-butanone]
SERT activity (in words) [4]: very strong SERT antagonist
t-1/2 ([7]; IV 1 mg/kg): 1.4 h
AUC ([7]; plasma, IV 1 mg/kg): 0.231 µg·h/mL
bioavailability ([7]; plasma, IV 1 mg/kg): 100%
concentration at 30 min ([7]; plasma, IV 1 mg/kg): 0.0925 µg/mL
concentration at 6 h ([7]; plasma, IV 1 mg/kg): 0.0031 µg/mL
concentration at 12 h ([7]; plasma, IV 1 mg/kg): 0.0005 µg/mL
AUC ([7]; plasma, PO 10 mg/kg): 0.056 µg·h/mL
Cmax ([7]; plasma, PO 10 mg/kg): 0.0138 µg/mL
bioavailability ([7]; plasma, PO 10 mg/kg): 2%
concentration at 30 min ([7]; plasma, PO 10 mg/kg): 0.0122 µg/mL
concentration at 1 h ([7]; plasma, PO 10 mg/kg): 0.0138 µg/mL
concentration at 6 h ([7]; plasma, PO 10 mg/kg): 0.0015 µg/mL
concentration at 12 h ([7]; plasma, PO 10 mg/kg): 0.0003 µg/mL
AUC ([7]; plasma, SC 45 mg/kg): 7.63 µg·h/mL
Cmax ([7]; plasma, SC 45 mg/kg): 0.747 µg/mL
bioavailability ([7]; plasma, SC 45 mg/kg): 73%
concentration at 30 min ([7]; plasma, SC 45 mg/kg): 0.705 µg/mL
concentration at 1 h ([7]; plasma, SC 45 mg/kg): 0.7 µg/mL
concentration at 6 h ([7]; plasma, SC 45 mg/kg): 0.498 µg/mL
concentration at 12 h ([7]; plasma, SC 45 mg/kg): 0.168 µg/mL
concentration at 24 h ([7]; plasma, SC 45 mg/kg): 0.0123 µg/mL
symptoms of emotional experience compared to placebo [8]: significant and unexpected improvement in symptoms of emotional experience
glutamatergic neurotransmission (NMDA and AMPA receptor conductance) [9]: enhances glutamatergic neurotransmission
mu-opiate activity (in words) [6]: no mu-opiate activity
Ki ([6]; Mu opiate receptor, read-out: Ki (nM) or maximum inhibition): > 10000 nM

CNC1(c2ccccc2Cl)CCCCC1=O (centres unmarked) [ketamine]
ratings on the Hamilton Depression Rating Scale (HDRS) compared to placebo [10]: significantly improved ratings
